Results from ChEMBL document CHEMBL1140503, “Discovery of 1,1-dioxo-1,2,6-thiadiazine-5-carboxamide derivatives as cannabinoid-like molecules with agonist and antagonist activity” (Bioorg Med Chem, 2007).
The source made the active and inactive calls. The rule behind the calls is not given here.

What was measured:
[1] = biological target: Cannabinoid receptor 1 (Mus musculus) (UniProt P47746); assay: (§1) Agonist activity at CB1 receptor in ICR mouse vas deferens assessed as inhibition of electrically-stimulated contraction; format: functional, tissue-based
Chain of Cannabinoid receptor 1 (Mus musculus) (P47746 whole entry): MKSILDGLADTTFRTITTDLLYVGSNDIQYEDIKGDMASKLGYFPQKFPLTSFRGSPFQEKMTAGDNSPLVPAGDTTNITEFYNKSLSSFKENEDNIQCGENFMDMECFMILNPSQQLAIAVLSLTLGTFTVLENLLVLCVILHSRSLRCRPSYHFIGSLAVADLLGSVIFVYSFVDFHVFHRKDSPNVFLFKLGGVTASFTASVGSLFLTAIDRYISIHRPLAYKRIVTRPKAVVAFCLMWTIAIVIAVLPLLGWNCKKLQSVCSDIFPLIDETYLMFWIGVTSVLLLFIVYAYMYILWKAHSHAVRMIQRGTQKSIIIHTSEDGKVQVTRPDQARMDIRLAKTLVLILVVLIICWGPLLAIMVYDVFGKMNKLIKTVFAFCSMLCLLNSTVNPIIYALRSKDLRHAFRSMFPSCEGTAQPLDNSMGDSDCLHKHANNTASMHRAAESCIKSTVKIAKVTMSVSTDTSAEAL

[2] = biological target: T1, Cannabinoid receptor 1 (Mus musculus, UniProt P47746); assay: as §1; format: functional, tissue-based
T1 sequence (P47746 whole entry): as above

[3] = tested on: Mus musculus; assay: Prevention of spontaneous activity reduction in ICR mouse at 1 mg/kg, ip; format: functional, organism-based; set-up: dose 1 mg/kg
[4] = tested on: Mus musculus; assay: Induction of catalepsy in ICR mouse at 1.5 mg/kg, ip by ring test; format: functional, organism-based; set-up: dose 1.5 mg/kg
[5] = tested on: Mus musculus; assay: Inhibition of spontaneous motility in ICR mouse at 1.5 mg/kg, ip; format: functional, organism-based; set-up: dose 1.5 mg/kg
[6] = tested on: Mus musculus; assay: Antinociceptive activity in ICR mouse at 1.5 mg/kg, ip by hot plate test; format: functional, organism-based; set-up: dose 1.5 mg/kg
[7] = tested on: Mus musculus; assay: Induction of hypothermic effect in ICR mouse at 1.5 mg/kg, ip; format: functional, organism-based; set-up: dose 1.5 mg/kg
[8] = Antagonism of WIN-55212-2 mediated antinociceptive activity in ICR mouse at 1 mg/kg ip dose; format: functional, organism-based; set-up: dose 1 mg/kg; settings: filed as antagonist
[9] = biological target: T1, Cannabinoid receptor 1; assay: Antagonist activity at CB1 receptor in ICR mouse vas deferens assessed as reversal of WIN-55212-2-induced effect on electrically-stimulated contraction; format: functional, tissue-based; settings: read-out: pA2 (converted)
[10] = tested on: Mus musculus; assay: Effect on cannabinoid behavioral sign in ICR mouse at 0.2 mg/kg, icv; format: functional, organism-based; set-up: dose 0.2 mg/kg
[11] = tested on: Mus musculus; assay: Increase in locomotory activity in ICR mouse at 20 mg/kg, ip; format: functional, organism-based; set-up: dose 20 mg/kg

## CC1=CC(C(=O)NN2CCOCC2)=NS(=O)(=O)N1Cc1ccccc1
[1]
  Agonism: inactive

## O=C(Nc1ccccc1)C1=NS(=O)(=O)N(Cc2ccccc2)C(c2ccc(Cl)cc2)=C1
[2]
  EC50: 5.73 µM

## O=C(NN1CCCCC1)C1=NS(=O)(=O)N(Cc2ccc(Cl)cc2Cl)C(c2ccc(Cl)cc2)=C1
[1]
  Agonism: inactive

## Cc1c(C(=O)c2cccc3ccccc23)c2cccc3c2n1[C@H](CN1CCOCC1)CO3
[3]
  Activity: Active
[4]
  Activity: Active
[5]
  Activity: Active
[6]
  Activity: Active
[7]
  Activity: Active

## CC1=CC(C(=O)NN2CCCCC2)=NS(=O)(=O)N1Cc1ccccc1
[1]
  Agonism: inactive

## O=C(NN1CCOCC1)C1=NS(=O)(=O)N(Cc2ccccc2)C(c2ccc(Br)cc2)=C1
[1]
  Agonism: inactive

## CC1=CC(C(=O)NN2CCCCC2)=NS(=O)(=O)N1C1CCCCC1
[1]
  Agonism: inactive

## Cc1cc(C2=CC(C(=O)NN3CCCCC3)=NS(=O)(=O)N2Cc2ccccc2)ccc1Cl
[1]
  Agonism: inactive

## CCCCCCN1C(C)=CC(C(=O)NN2CCCCC2)=NS1(=O)=O
[2]
  EC50: 36.9 µM

## O=C(NN1CCCCC1)C1=NS(=O)(=O)N(Cc2ccc(Cl)cc2Cl)C(c2ccc(Br)cc2)=C1
[1]
  Agonism: inactive

## CC1=CC(C(=O)NN2CCCCC2)=NS(=O)(=O)N1c1ccc(Cl)cc1
[1]
  Agonism: inactive

## CC1=CC(C(=O)NC2CCCCC2)=NS(=O)(=O)N1c1ccccc1
[1]
  Agonism: inactive

## O=C(NN1CCCCC1)C1=NS(=O)(=O)N(Cc2ccccc2)C(c2ccc(Cl)cc2)=C1
[8]
  Antagonism: Antagonist
[9]
  Kb: 0.12 µM
[2]
  EC50: 13.5 µM

## Cc1cc(C2=CC(C(=O)NC3C4(C)CCC(C4)C3(C)C)=NS(=O)(=O)N2Cc2ccccc2)ccc1Cl (stereo not given)
[1]
  Agonism: inactive

## CC12CCC(C1)C(C)(C)C2NC(=O)C1=NS(=O)(=O)N(Cc2ccc(Cl)cc2Cl)C(c2ccc(Cl)cc2)=C1 (stereo not given)
[1]
  Agonism: inactive

## CCCCCCN1C(c2ccc(Cl)cc2)=CC(C(=O)NN2CCCCC2)=NS1(=O)=O
[9]
  Kb: 0.209 µM
[2]
  EC50: 8.44 µM

## Cc1c(C(=O)NN2CCCCC2)nn(-c2ccc(Cl)cc2Cl)c1-c1ccc(Cl)cc1
[8]
  Antagonism: Antagonist

## Cc1cc(C2=CC(C(=O)NC3CCCCC3)=NS(=O)(=O)N2Cc2ccc(Cl)cc2Cl)ccc1Cl
[2]
  EC50: 36.9 µM

## O=C(NN1CCCCC1)C1=NS(=O)(=O)N(Cc2ccccc2)C(c2ccc(Br)cc2)=C1
[1]
  Agonism: inactive

## O=C(NN1CCCCC1)C1=NS(=O)(=O)N(C2CCCCC2)C(c2ccc(Br)cc2)=C1
[2]
  EC50: 38.4 µM

## CC12CCC(C1)C(C)(C)C2NC(=O)C1=NS(=O)(=O)N(Cc2ccccc2)C(c2ccc(Cl)cc2)=C1 (stereo not given)
[10]
  Activity: inactive
[2]
  EC50: 11.9 µM
[11]
  Activity: Active
